Values quoted from earlier work, collected in patent publication US20190105332A1, “METHODS OF TREATING PROSTATE CANCER” (Janssen Oncology, Inc., priority 2017, published 2019).
Read-outs that look alike come from different tables or passages of the source.

What was measured:
P-glycoprotein (P-gp) = P-glycoprotein (P-gp) (Homo sapiens, UniProt P08183); conditions: in vitro
[1] = system: primary human lymphocytes
[2] = not given; remark: listed apart in the source
[3] = not given; remark: listed apart in the source
[4] = not given; remark: listed apart in the source
CYP2C8 = target: T1, CYP2C8 (Homo sapiens, UniProt P10632); parameters: from tissue; host or cells: in vivo, healthy human subjects (endogenous enzyme); conditions: healthy subjects; single dose of 1,000 mg abiraterone acetate
T1 sequence (P10632 1-490): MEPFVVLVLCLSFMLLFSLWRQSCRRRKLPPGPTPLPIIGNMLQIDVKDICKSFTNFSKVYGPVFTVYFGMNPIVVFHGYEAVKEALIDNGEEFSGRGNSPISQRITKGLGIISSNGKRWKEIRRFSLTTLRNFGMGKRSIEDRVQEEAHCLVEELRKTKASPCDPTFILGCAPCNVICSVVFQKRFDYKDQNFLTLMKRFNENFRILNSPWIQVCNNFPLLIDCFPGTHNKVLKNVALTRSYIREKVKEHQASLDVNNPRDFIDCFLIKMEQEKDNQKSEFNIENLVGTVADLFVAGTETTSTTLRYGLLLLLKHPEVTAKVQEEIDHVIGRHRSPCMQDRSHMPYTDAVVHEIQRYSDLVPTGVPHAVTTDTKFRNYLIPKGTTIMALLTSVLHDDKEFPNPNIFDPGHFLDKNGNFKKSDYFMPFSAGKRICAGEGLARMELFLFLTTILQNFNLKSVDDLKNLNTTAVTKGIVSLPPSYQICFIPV

CYP1A2 = target: T2, CYP1A2 (Homo sapiens, UniProt P05177); conditions: abiraterone acetate 1,000 mg daily plus prednisone 5 mg twice daily; single 100 mg theophylline
T2 sequence (P05177 1-516): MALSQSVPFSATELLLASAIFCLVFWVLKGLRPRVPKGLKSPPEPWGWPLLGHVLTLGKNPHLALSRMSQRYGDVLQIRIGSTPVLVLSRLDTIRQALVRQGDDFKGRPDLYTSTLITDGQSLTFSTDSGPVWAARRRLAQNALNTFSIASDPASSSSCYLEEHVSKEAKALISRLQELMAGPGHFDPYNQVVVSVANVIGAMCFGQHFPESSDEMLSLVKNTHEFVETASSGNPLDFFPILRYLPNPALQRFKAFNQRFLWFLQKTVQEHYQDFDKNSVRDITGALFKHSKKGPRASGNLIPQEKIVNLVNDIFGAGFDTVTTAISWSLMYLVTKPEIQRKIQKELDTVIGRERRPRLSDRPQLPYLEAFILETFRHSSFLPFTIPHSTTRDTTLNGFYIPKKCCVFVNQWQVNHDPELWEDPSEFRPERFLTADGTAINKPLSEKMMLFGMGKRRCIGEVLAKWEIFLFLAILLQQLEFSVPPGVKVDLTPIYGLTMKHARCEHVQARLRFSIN

[5] = rat micronucleus assay
[6] = not given; remark: listed apart in the source
CYP2D6 = target: T3, CYP2D6 (Homo sapiens, UniProt P10635)
T3 construct: from tissue; host or cells: in vivo, trial participants (endogenous hepatic enzyme)

[7] = not given; remark: listed apart in the source
[8] = 6-month study
[9] = not given; remark: listed apart in the source
[10] = not given; remark: listed apart in the source
[11] = oral, 2 weeks until day 7 of pregnancy
[12] = abiraterone acetate 1,000 mg daily and prednisone 5 mg twice daily

T3 sequence (P10635 whole entry): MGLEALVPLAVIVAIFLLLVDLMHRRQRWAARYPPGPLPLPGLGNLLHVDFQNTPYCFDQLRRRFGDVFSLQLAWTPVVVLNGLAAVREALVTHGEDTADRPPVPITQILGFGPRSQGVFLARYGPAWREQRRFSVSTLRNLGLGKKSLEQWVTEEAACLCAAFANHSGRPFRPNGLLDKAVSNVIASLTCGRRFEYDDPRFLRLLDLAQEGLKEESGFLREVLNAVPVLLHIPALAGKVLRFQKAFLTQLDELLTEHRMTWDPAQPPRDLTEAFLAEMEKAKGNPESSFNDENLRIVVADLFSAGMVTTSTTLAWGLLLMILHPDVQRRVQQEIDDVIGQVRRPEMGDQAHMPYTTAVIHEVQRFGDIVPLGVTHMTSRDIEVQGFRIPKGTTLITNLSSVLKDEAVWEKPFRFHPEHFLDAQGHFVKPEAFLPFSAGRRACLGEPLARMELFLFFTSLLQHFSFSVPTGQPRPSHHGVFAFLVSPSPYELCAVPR
Sequence of P-glycoprotein (P-gp) (P08183 whole entry): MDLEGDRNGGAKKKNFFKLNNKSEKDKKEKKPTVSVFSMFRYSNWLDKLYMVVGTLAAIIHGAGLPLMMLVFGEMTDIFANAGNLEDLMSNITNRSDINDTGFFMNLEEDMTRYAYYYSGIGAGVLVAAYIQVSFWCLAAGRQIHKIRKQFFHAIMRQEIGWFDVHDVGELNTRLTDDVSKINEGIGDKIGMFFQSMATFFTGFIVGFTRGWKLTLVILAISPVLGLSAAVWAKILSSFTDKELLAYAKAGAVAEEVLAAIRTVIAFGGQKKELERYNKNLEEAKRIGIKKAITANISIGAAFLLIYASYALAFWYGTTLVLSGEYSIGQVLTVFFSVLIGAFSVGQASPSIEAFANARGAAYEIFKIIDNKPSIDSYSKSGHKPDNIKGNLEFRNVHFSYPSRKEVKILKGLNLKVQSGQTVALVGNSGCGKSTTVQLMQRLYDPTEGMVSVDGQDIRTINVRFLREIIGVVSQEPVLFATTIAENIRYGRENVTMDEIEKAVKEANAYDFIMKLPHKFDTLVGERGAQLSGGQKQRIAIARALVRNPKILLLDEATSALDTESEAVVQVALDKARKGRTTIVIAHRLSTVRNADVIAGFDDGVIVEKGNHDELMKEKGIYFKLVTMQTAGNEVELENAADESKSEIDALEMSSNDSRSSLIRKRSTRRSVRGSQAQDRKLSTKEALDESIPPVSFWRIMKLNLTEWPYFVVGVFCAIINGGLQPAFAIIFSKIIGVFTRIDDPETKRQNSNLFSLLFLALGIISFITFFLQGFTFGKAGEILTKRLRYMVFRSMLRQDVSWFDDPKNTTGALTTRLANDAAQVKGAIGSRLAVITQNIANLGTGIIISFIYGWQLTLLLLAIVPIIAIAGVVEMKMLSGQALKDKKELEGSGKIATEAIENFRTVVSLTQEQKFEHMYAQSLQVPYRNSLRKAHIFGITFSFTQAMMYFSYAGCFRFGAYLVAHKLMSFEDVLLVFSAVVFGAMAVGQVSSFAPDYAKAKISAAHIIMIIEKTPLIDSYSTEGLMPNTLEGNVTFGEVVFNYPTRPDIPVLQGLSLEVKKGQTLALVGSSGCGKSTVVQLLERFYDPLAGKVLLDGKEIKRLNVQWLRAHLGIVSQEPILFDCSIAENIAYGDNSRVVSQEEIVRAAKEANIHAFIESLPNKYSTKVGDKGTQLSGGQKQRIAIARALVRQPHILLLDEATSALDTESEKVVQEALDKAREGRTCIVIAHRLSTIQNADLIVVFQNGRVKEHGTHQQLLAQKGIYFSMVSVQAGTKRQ

In the case of CC(=O)O[C@H]1CC[C@@]2(C)C(=CC[C@@H]3[C@@H]2CC[C@]2(C)C(c4cccnc4)=CC[C@@H]32)C1 [abiraterone acetate, (3β)-17-(3-pyridinyl) androsta-5,16-dien-3-yl acetate], the “systemic exposure (AUC) relative to the AUC in patients” value (100 mg/kg/day) is given as about 0.3 times, the “dose with decreased fetal body weight” value (oral, gestational days 6-17) is given as 100 mg/kg/day and the “doses that caused maternal toxicity” value (oral, gestational days 6-17) is given as at least 10 mg/kg/day. The “doses with decreased fetal ano-genital distance” value (oral, gestational days 6-17) was at least 30 mg/kg/day, the “doses with embryo-fetal lethality, fetal developmental delay and urogenital effects” value (rat, in vivo, po) was at least 10 mg/kg/day and the “inhibition of P-gp” value (P-glycoprotein (P-gp)) was “inhibitor”. For the same compound, the “substrate of P-glycoprotein (P-gp)” value (P-glycoprotein (P-gp); clinically relevant concentrations) was “not substrates”, the clastogenicity in vitro [1] was “not mutagenic in an in vitro microbial mutagenesis (Ames) assay or clastogenic” and the “octanol-water partition coefficient (Log P)” value [2] was 5.12. The “pKa of the aromatic nitrogen” value [2] was 5.19, the solubility in water [2] was “practically insoluble” and the “dose with pre-implantation loss” value [3, 11] was 300 mg/kg/day. The “doses with increased incidence of irregular or extended estrous cycles” value [3, 11] was at least 30 mg/kg/day, the “mating, fertility, and litter parameters” value ([3]; rat, in vivo) was “no differences” and the “time after last administration at which effects on female rats were reversible” value ([3]; rat, in vivo) was 4 weeks. The “exposure at which a reduction in circulating testosterone levels occurred” value ([4]; 13- and 39-week studies) was “approximately one half the human clinical exposure”, the cataracts ([4]; 39-week, daily oral, 2 times greater than the clinical exposure based on AUC) was “no cataracts were observed” and the “doses with atrophy, aspermia/hypospermia, and hyperplasia in the reproductive system” value ([4]; 39-weeks) was at least 250 mg/kg/day. The “increase in AUC of pioglitazone (CYP2C8 substrate)” value (CYP2C8) was 46%, the “systemic exposure of theophylline (CYP1A2 substrate)” value (CYP1A2) was “no increase” and the clastogenicity in vivo [5] was “not mutagenic in an in vitro microbial mutagenesis (Ames) assay or clastogenic”. The conversion to abiraterone ([6]; likely through esterase activity) was “not CYP mediated”, the “compound present in feces, share of the administered dose” value ([6]; oral 14C-abiraterone acetate) was “approximately 55%” and the “radioactive dose recovered in feces” value ([6]; oral administration) was “approximately 88%”. The “radioactive dose recovered in urine” value ([6]; oral administration) was “approximately 5%”, the “increase in AUC of dextromethorphan (CYP2D6 substrate)” value (CYP2D6; [12]) was 2.9 fold and the “increase in Cmax of dextromethorphan (CYP2D6 substrate)” value (CYP2D6; [12]) was 2.8 fold. For the same compound, the “increase in AUC for dextrorphan” value (CYP2D6; abiraterone acetate 1,000 mg daily plus prednisone 5 mg twice daily) was “approximately 1.3 fold”, the “carcinogenicity in female rats” value ([7]; exposure levels up to 0.8 times the human clinical exposure based on AUC) was “not carcinogenic” and the “carcinogenicity in male rats” value ([7]; oral 5, 15, and 50 mg/kg/day) was “increased the combined incidence of interstitial, cell adenomas and carcinomas in the testes at all dose levels tested”. For the same compound, the carcinogenicity [8] was “not carcinogenic”, the “30 mg/kg/day in rats relative to the recommended dose of 1,000 mg/day” value ([9]; based on body surface area) was “approximately 0.3 times” and the “doses with reduced reproductive organ weights, sperm counts, sperm motility, altered sperm morphology and decreased fertility” value ([9]; dosed orally for 4 weeks) was at least 30 mg/kg/day. The “time after last administration at which effects on male rats were reversible” value ([9]; rat, in vivo) was 16 weeks, the “exposure at which a reduction in circulating testosterone levels occurred” value ([10]; 13- and 26-week studies) was “approximately one half the human clinical exposure” and the “doses with dose-dependent increase in cataracts” value ([10]; daily oral, 26 weeks, similar to the human clinical exposure based on AUC) was at least 50 mg/kg/day. For the same compound, the “doses with atrophy, aspermia/hypospermia, and hyperplasia in the reproductive system” value ([10]; male rats, 13- and 26-weeks) was at least 50 mg/kg/day.
